Patent US12559454B2, “Benzenesulfonamide derivatives and uses thereof” (2692372 Ontario, Inc., priority 2019, dated 2026)

Columns and labels:
[1] = target: T1, BTK (Homo sapiens, UniProt Q06187); assay: BTK washout experiment; assay type: biochemical; conditions: 400-fold dilution
Protocol: After a 3-h incubation of 40 nM BTK in the presence of 296 nM of compound I-A1, a 400-fold dilution was performed to remove excess inhibitor.
After a 6-h incubation of 50 nM BTK in the presence of 280 nM of compound 3A-6, a 400-fold dilution was performed to remove excess inhibitor.
By way of contrast, a “washout” experiment performed with ARQ-531 gives a very different result, because this compound lacks a warhead and is known to inhibit BTK reversibly. After a 6-h incubation of 50 nM BTK in the presence of 177 nM of ARQ-531, a 400-fold dilution was performed to remove excess inhibitor. […] This indicates to one of ordinary skill in the art that the enzyme was not inhibited irreversibly during the incubation with ARQ-531.

[2] = target: T2, JAK3 (Homo sapiens, UniProt P52333); assay: In vitro JAK3 inhibition (no preincubation); assay type: biochemical
T2 sequence (P52333 1-1124): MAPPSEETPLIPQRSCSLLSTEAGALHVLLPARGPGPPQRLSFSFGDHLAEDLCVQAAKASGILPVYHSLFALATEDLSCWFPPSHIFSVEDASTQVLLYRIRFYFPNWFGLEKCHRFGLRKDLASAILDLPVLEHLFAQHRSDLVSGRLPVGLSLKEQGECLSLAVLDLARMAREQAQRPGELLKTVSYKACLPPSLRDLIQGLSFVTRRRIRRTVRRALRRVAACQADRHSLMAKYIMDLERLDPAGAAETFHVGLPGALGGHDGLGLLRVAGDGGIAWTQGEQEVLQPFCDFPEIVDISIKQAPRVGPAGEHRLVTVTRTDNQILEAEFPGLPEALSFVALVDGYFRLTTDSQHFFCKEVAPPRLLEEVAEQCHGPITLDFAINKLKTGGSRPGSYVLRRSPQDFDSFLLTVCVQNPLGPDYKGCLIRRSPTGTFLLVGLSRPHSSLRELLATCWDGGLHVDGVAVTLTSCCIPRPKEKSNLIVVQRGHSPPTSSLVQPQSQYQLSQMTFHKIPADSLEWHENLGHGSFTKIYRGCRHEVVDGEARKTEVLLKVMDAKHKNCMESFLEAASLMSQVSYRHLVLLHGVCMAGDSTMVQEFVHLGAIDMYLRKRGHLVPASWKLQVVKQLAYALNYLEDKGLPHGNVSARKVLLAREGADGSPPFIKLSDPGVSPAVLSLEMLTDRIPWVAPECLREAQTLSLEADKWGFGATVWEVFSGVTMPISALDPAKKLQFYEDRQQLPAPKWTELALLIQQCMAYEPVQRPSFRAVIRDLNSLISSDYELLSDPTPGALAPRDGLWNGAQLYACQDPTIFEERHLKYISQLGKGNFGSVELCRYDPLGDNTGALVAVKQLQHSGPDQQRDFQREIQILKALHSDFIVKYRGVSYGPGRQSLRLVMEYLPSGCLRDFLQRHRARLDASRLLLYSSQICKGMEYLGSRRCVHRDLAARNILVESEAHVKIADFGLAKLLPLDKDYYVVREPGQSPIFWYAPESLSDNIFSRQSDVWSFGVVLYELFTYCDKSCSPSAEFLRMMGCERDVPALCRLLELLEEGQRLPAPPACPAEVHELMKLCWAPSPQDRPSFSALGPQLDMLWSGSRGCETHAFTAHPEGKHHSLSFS
Protocol: In vitro BTK and JAK3 inhibition studies are shown in Table 17 and Table 18 (no preincubation).

[3] = target: T1, BTK; assay: In vitro BTK inhibition (no preincubation); assay type: biochemical
[4] = tested on: RL human non-Hodgkin's lymphoma B cell line; assay: In vitro efficacy in RL cells (Example G1); conditions: read-out: RL (IC50, μM)
[5] = tested on: BTK (His-tagged protein); assay: Covalent modification of BTK by mass spectrometry (intact protein); assay type: binding; conditions: 10 μM BTK, 50 μM compound, 2 hours, 30° C.
Protocol: After incubation of 10 μM BTK in the presence of 50 μM of compound I-A1 for 2 hours at 30° C., the mass of the modified protein was determined by mass spectrometry. […] After incubation with inhibitor I-A1, the intensity of this had decreased by an order of magnitude, and the most intense peak is consistent with the protein whose mass was increased by 595 Da, corresponding closely to the expected mass of the inhibitor I-A1 (less one fluoride from inhibitor, and one proton from protein, 596 Da).

[6] = target: T1, BTK; assay: BTK irreversible inhibition, enzyme kinetic analysis; assay type: biochemical
Protocol: One of ordinary skill in the art will recognize that this is consistent with the irreversible inhibition of BTK by compound I-A1.
One of ordinary skill in the art will recognize that this is consistent with the irreversible inhibition of BTK by compound I-A6.
One of ordinary skill in the art will recognize that this is consistent with the irreversible inhibition of BTK by compound 3A-2.
The shift of IC50 to a lower value after pre-incubation of the enzyme indicates to one of ordinary skill in the art that a significant portion of the enzyme was inhibited irreversibly during the incubation period.

[7] = tested on: normal primary human fibroblast (NHF) cell lines; assay: Toxicity study, CellTiter-Blue viability in normal primary human fibroblasts (NHF); assay type: cell-based; conditions: NHF cells, 72 hrs exposure
Protocol: Anti-cancer efficacy of exemplary compounds of this application was assessed in vitro in different cancer cell lines. Cell viability was examined following treatment at various concentration of inhibitor (0.097656-50 μM) using a cell Titer-Blue cell viability assay. 1×10^4 cells (NHF cells)/well were plated in 96-well assay plates in culture medium. All cells were grown in DMEM, IMDM and RPMI-1640 supplemented with 10% FBS. After 24 hrs, test compounds and vehicle controls were added to appropriate wells so the final volume was 100p in each well. The cells were cultured for the desired test exposure period (72 hrs) at 37° C. and 5% CO2. The assay plates were removed from 37° C. incubator and 20 μl/well of CellTiter-Blue® Reagent was added. The plates were incubated using standard cell culture conditions for 1-4 hours and the plates were shaken for 10 seconds and record fluorescence at 560/590 nm.
Representative data for exemplary compounds against select normal primary human fibroblast (NHF) cell lines are presented in the following Table 7.

[8] = Parallel artificial membrane permeability assay (PAMPA), Example C4; assay type: in vitro ADME; conditions: PBS pH 7.4, 10 μM, 16 hours
Protocol: Assay Procedures. […] 7) Cover with plate lid. Vortex at 750 rpm for 100 seconds. […] Determine the compound concentrations by LC/MS/MS.

[9] = tested on: normal pooled human fibroblasts; assay: Viability of normal pooled human fibroblasts (Example G1); conditions: Fibroblast, read-out: Human Fibroblast (IC50, μM)
[10] = tested on: RL human non-Hodgkin's lymphoma B cell line; assay: Cell viability in RL cells (Table 6); assay type: cell-based
[11] = target: T1, BTK; assay: Selected kinase inhibition, BTK (Table 6); assay type: biochemical
[12] = Reactivity profiling with glutathione, LC/MS/MS; assay type: physicochemical; conditions: PBS buffer with 5 mM GSH, PBS pH 7.4, 25° C., 5 μM compound
Protocol: The experiment was started by placing 1 μL of 1 mM stocking solution of the test compound in DMSO in 199 μL of PBS buffer at pH 7.4 with 5 mM GSH to reach a final concentration of 5 μM. The final DMSO concentration was 0.5%. The solution was then incubated at 25° C. at 600 rpm, and was quenched with 600 μL solution of acetonitrile at 0, 30, 60 and 120 minutes. The quenched solution was vortexed for 10 minutes and centrifuged for 40 minutes at 3,220 g. An aliquot of 100 μL of the supernatant was diluted by 100 μL ultra-pure water, and the mixture was used for LC/MS/MS analysis. The data was processed and analyzed using Microsoft Excel.

T1 sequence (Q06187 whole entry, species assumed): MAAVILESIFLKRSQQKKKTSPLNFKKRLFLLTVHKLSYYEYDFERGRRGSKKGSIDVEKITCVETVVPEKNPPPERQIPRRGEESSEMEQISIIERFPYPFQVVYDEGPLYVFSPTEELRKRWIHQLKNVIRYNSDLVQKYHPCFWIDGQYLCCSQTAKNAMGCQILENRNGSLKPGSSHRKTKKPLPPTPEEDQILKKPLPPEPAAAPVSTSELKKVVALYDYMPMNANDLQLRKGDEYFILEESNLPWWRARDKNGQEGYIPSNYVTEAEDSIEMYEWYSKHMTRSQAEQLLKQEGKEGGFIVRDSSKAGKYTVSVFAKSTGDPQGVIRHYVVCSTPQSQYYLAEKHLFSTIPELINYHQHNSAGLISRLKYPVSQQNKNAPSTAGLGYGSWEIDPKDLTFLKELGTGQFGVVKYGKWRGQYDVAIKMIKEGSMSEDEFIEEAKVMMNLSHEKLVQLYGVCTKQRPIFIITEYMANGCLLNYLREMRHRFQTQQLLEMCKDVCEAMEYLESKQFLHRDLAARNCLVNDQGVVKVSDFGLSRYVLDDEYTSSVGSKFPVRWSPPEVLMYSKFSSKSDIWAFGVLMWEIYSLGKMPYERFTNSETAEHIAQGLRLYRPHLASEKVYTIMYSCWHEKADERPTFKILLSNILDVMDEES

In the case of `O=C(c1ccc(Oc2ccccc2)cc1Cl)c1c[nH]c2ncnc(N[C@@H]3CC[C@@H](CO)OC3)c12` [ARQ-531, reference compound], the “residual activity of the enzyme” value ([1]; 6-h incubation, 50 nM BTK, 177 nM compound, relative to DMSO) is reported as “recovered all of its activity”.
`C[C@H]1CC[C@@H](Nc2ncnc3[nH]ccc23)CN1S(=O)(=O)c1c(F)c(F)c(F)c(F)c1F` [Compound 3A-25, N-((3R,6S)-6-methyl-1-((perfluorophenyl)sulfonyl)piperidin-3-yl)-7H-pyrrolo[2,3-d]pyrimidin-4-amine] showed an IC50 [2] of 1 to 10 µM.
Molecule `O=S(=O)(NCCNc1ncnc2[nH]ccc12)c1c(F)c(F)c(F)c(F)c1F` [Compound 3A-27, N-(2-((7H-pyrrolo[2,3-d]pyrimidin-4-yl)amino)ethyl)-2,3,4,5,6-pentafluorobenzene sulfonamide] has an IC50 ([3]; Table 18) of 0.0001 to 0.01 µM and an IC50 [2] of 1 to 10 µM.
With `CN(CCNc1ncnc2[nH]ccc12)S(=O)(=O)c1c(F)c(F)c(F)c(F)c1F` [Compound 3A-28, N-(2-((7H-pyrrolo[2,3-d]pyrimidin-4-yl)amino)ethyl)-2,3,4,5,6-pentafluoro-N-methylbenzenesulfonamide] the IC50 ([3]; Table 18) was 0.1 to 1 µM and the IC50 [2] was 1 to 10 µM.
With `Nc1ncnc2c1c(-c1ccc(Oc3ccccc3)cc1)nn2[C@@H]1CCCN(S(=O)(=O)c2c(F)c(F)c(F)c(F)c2F)C1` [I-A1, (R)-1-(1-((perfluorophenyl)sulfonyl)piperidin-3-yl)-3-(4-phenoxyphenyl)-1H-pyrazolo[3,4-d]pyrimidin-4-amine] the inhibition at 0.296 µM ([1]; 3-h incubation, 40 nM BTK, 296 nM compound, read-out: enzyme inhibited irreversibly) was > 90%, the remaining activity at 0.296 µM ([1]; 3-h incubation, 40 nM BTK, 296 nM compound, relative to DMSO, read-out: residual activity of the enzyme) was 7% and the IC50 [4] was 1.61 µM. The “mass increase of BTK after incubation” value [5] was 595 Da, the “inhibition profile by enzyme kinetic analysis” value (“inhibition profile” below) ([6]; 0.1 nM BTK, 500 μM ATP) was “time-dependent inhibition” and the IC50 [7] was 1 to 10 µM. For the same molecule, the “−Log Pe” value [8] was “B (>5 to ≤6)”, the IC50 [9] was 3.98 µM and the IC50 [10] was 1 to 10 µM.
`Nc1ncnc2c1c(-c1ccc(Oc3ccccc3)cc1)nn2[C@H]1CCCN(S(=O)(=O)c2c(F)c(F)c(F)c(F)c2F)C1` [I-A2, (S)-1-(1-((perfluorophenyl)sulfonyl)piperidin-3-yl)-3-(4-phenoxyphenyl)-1H-pyrazolo[3,4-d]pyrimidin-4-amine] gave an IC50 [7] of 1 to 10 µM, an IC50 [10] of 1 to 10 µM and an IC50 [11] of 0.1 to 1 µM.
Molecule `Nc1ncnc2c1c(-c1ccc(Oc3ccccc3)cc1)nn2S(=O)(=O)c1c(F)c(F)c(F)c(F)c1F` [I-A3, 1-((perfluorophenyl)sulfonyl)-3-(4-phenoxyphenyl)-1H-pyrazolo[3,4-d]pyrimidin-4-amine] has an IC50 [10] of 1 to 10 µM and an IC50 [11] of 0.1 to 1 µM.
In the case of `Nc1ncnc2c1c(-c1ccc(Oc3ccccc3)cc1)nn2[C@@H]1CCCN(S(=O)(=O)c2cc(F)c(F)c(F)c2F)C1` [I-A4, (R)-3-(4-phenoxyphenyl)-1-(1-((2,3,4,5-tetrafluorophenyl)sulfonyl)piperidin-3-yl)-1H-pyrazolo[3,4-d]pyrimidin-4-amine], the IC50 [7] is reported as > 25 µM, the “−Log Pe” value [8] is reported as “B (>5 to ≤6)” and the IC50 [11] is reported as 0.01 to 0.1 µM.
With `Nc1ncnc2c1c(-c1ccc(Oc3ccccc3)cc1)nn2[C@@H]1CCCN(S(=O)(=O)c2c(F)c(F)cc(F)c2F)C1` [I-A5, (R)-3-(4-phenoxyphenyl)-1-(1-((2,3,5,6-tetrafluorophenyl)sulfonyl)piperidin-3-yl)-1H-pyrazolo[3,4-d]pyrimidin-4-amine] the half-life at 5 μM [12] was 6.94 to 20.8 days, the “inhibition profile” value ([6]; 0.1 nM BTK, 500 μM ATP) was “linear enzyme reaction rates” and the IC50 ([6]; fitting of linear reaction rates to a reversible binding model, read-out: IC50 (reversible binding model)) was 0.334 µM. The IC50 ([3]; Table 17) was 0.1 to 1 µM, the IC50 [7] was > 25 µM and the “−Log Pe” value [8] was “B (>5 to ≤6)”. For the same molecule, the IC50 [11] was 0.1 to 1 µM.
With `Nc1ncnc2c1c(-c1ccc(Oc3ccccc3)cc1)nn2[C@@H]1CCCN(S(=O)(=O)c2c(F)c(F)c(F)c(F)c2OC2CC2)C1` [I-A6, (R)-1-(1-((2-cyclopropoxy-3,4,5,6-tetrafluorophenyl)sulfonyl)piperidin-3-yl)-3-(4-phenoxyphenyl)-1H-pyrazolo[3,4-d]pyrimidin-4-amine] the IC50 [4] was 1 µM, the “inhibition profile” value ([6]; 0.1 nM BTK, 500 μM ATP) was “time-dependent inhibition” and the kinact ([6]; 0.1 nM BTK, 500 μM ATP, saturation kinetics) was 0.000671 s⁻¹. For the same molecule, the Ki ([6]; 0.1 nM BTK, 500 μM ATP, saturation kinetics of irreversible inhibition) was 0.0713 µM, the IC50 ([3]; Table 17) was 0.1 to 1 µM and the IC50 [7] was > 25 µM. For the same molecule, the “−Log Pe” value [8] was “C (>6 to ≤7)”, the IC50 [9] was > 25 µM and the IC50 [11] was 0.1 to 1 µM.
For `Nc1ncnc2c1c(-c1ccc(Oc3ccccc3)cc1)nn2[C@@H]1CCCN(S(=O)(=O)c2c(OC3CC3)c(F)c(F)c(F)c2OC2CC2)C1` [I-A7, (R)-1-(1-((2,6-dicyclopropoxy-3,4,5-trifluorophenyl)sulfonyl)piperidin-3-yl)-3-(4-phenoxyphenyl)-1H-pyrazolo[3,4-d]pyrimidin-4-amine], the IC50 [7] was > 25 µM and the “−Log Pe” value [8] was “C (>6 to ≤7)”.
Molecule `C=CC(=O)N1CCC[C@@H](n2nc(-c3ccc(Oc4ccccc4)cc3)c3c(N)ncnc32)C1` [Ibrutinib, reference compound] has an IC50 [4] of 10.3 µM, an IC50 [7] of 10 to 25 µM and an IC50 [9] of 26.8 µM. It also gave an IC50 [10] of 10 to 30 µM.
